US5663186A, “Treatment of atherosclerosis with angiotensin II receptor blocking imidazoles” (Merck & Co., Inc., priority 1995, dated 1997)
Counter-ions that a name gives are not always drawn.

Tests used:
conscious dogs = assay: Hypotensive effects and inhibition of AII pressor response before and after furosemide in conscious dogs; assay type: in vivo, dog
AII = settings: cited from earlier work
dogs = settings: cited from earlier work
Renal Hypertensives Rats = assay: Antihypertensive effects in renal hypertensive rats (left renal artery ligation); assay type: in vivo, rat
Protocol: This procedure increases blood pressure by increasing renin production with consequent elevation of AII levels. Compounds are administered orally at 100 mg/kg and/or intravenously via a cannula in the jugular vein at 10 mg/kg. Arterial blood pressure is continuously measured directly through a carotid artery cannula and recorded using a pressure transducer and a polygraph. Blood pressure levels after treatment are compared to pretreatment levels to determine the antihypertensive effects of the compounds (See Table 1).
Compound listed in Table 2 was tested in the same manner as described for Table 1, except that in the test for antihypertensive effects in renal hypertensive rats, the compounds were administered orally at 30 mg/kg and intravenously at 3 mg/kg.

In the case of NS(=O)(=O)c1cc(C(=O)O)c(NCc2ccco2)cc1Cl [furosemide, reference compound], the “Plasma renin activity (PRA)” value (conscious dogs; dogs (three), furosemide 10 mg/kg im at 18 and 2 hours before, PRA four days earlier 1.5±0.5) is reported as 19.9±7.2 ng AI/ml/hr.
For CNCC(=O)N[C@@H](CCCN=C(N)N)C(=O)N[C@H](C(=O)N[C@@H](Cc1ccc(O)cc1)C(=O)N[C@H](C(=O)N[C@@H](Cc1cnc[nH]1)C(=O)N1CCC[C@H]1C(=O)N[C@@H](C)C(=O)O)C(C)C)C(C)C [Saralasin, [Sar^1, Ala^8] AII], the “lowering of arterial pressure” value (AII; mammals and man, when the (elevated) pressure is dependent on circulating AII) is listed as “lower arterial pressure in mammals and man”, the oral effectiveness (AII; oral doses) is listed as “oral doses being ineffective” and the “duration of pharmacological effects” value (AII; parenteral administration) is listed as “relatively short-lasting”. For the same molecule, the “antagonism of the actions of AII” value (AII; pithed rats) was “one of the most potent competitive antagonists of the actions of AII”, the “agonistic (pressor) effects” value (AII; when the pressure is not sustained by AII) was “generally elicits pressor effects when the pressure is not sustained by AII” and the “effect on renal vasoconstrictor effect of indomethacin and meclofenamate” value (dogs; dogs) was “inhibit the renal vasoconstrictor effect of indomethacin and meclofenamate”.
For CCCCc1nc(Cl)c(C(=O)O)n1Cc1ccc(-c2ccccc2-c2nnn[nH]2)cc1 [Compound 2, 2-n-butyl-4-chloro-1-[(2'-(tetrazol-5-yl)-1,1'-biphenyl-4-yl)-methyl]-1H-imidazole-5-carboxylic acid], the “Antihypertensive Effects in Renal Hypertensives Rats, Intravenous Activity” value (Renal Hypertensives Rats; intravenous, 3.0 mg/kg or less) was “+ (Significant decrease in blood pressure at 3.0 mg/kg or less)” and the “Antihypertensive Effects in Renal Hypertensives Rats, Oral Activity” value (Renal Hypertensives Rats; oral, 30 mg/kg or less) was “+ (Significant decrease in blood pressure at 30 mg/kg or less)”.
In the case of CCCCc1nc(Cl)c(CO)n1Cc1ccc(-c2ccccc2-c2nnn[nH]2)cc1 [2-butyl-4-chloro-1-[2'-(1H-tetrazol-5-yl)biphenyl-4-yl)methyl]-5-hydroxymethylimidazole sodium salt], the “inhibition of pressor response to AII after furosemide” value (conscious dogs; furosemide-treated dogs, cumulative iv) is reported as “inhibited the pressor response to AII at the two higher doses”, the “decrease in blood pressure after furosemide” value (conscious dogs; furosemide-treated dogs, cumulative iv 0.3 to 3 mg/kg) is reported as “significant decrease in blood pressure in a dose-dependent manner” and the blood pressure lowering (conscious dogs; normotensive conscious dogs (n=4), cumulative iv 0.3 to 3 mg/kg, before furosemide) is reported as “did not lower blood pressure”. For the same molecule, the “inhibition of pressor response to AII” value (conscious dogs; normotensive conscious dogs, cumulative iv 0.3 to 3 mg/kg, AII 0.1 μg/kg iv, 10 min post dose, before furosemide) was “effective in inhibiting the pressor response to AII”.
For C[C@H](CS)C(=O)N1CCC[C@H]1C(=O)O [captopril], the “effect on renal vasoconstrictor effect of indomethacin” value (dogs; dogs with non-hypotensive hemorrhage) is given as “reverse the renal vasoconstrictor effect of indomethacin”.
